# Measurements: PMC5218480 (PLoS ONE, 2017)
# System: MV-4-11 cells
# Test: Gene expression microarray analysis (Affymetrix PrimeView) and GSEA
# Assay type: cell-based, human
# Set-up: RFU PODN (11730768_x_at) / Fold change /veh PODN (11730768_x_at) / RFU LINC00158 (11744669_a_at) / Fold change /veh LINC00158 (11744669_a_at) / RFU DUSP10 (11751237_a_at) / Fold change /veh DUSP10 (11751237_a_at) / RFU ID3 (11757404_x_at) / Fold change /veh ID3 (11757404_x_at) / RFU PLEKHG5 (11737974_s_at) / Fold change /veh PLEKHG5 (11737974_s_at) / RFU LRRC4B (11730491_at) / Fold change /veh LRRC4B (11730491_at) / RFU GIMAP4 (11747438_a_at) / Fold change /veh GIMAP4 (11747438_a_at) / RFU KRT8 (11758183_x_at) / Fold change /veh KRT8 (11758183_x_at) / RFU CNN1 (11734310_a_at) / Fold change /veh CNN1 (11734310_a_at) / RFU VPS37D (11726825_at) / Fold change /veh VPS37D (11726825_at) / RFU C10orf10 (11716522_x_at) / Fold change /veh C10orf10 (11716522_x_at) / RFU KIR2DL2 /// KIR2DL4 /// KIR2DL5A /// KIR2DL5B /// KIR2DS1 /// KIR2DS2 /// KIR2DS3 /// KIR2DS4 /// KIR3DL3 /// KIR3DL3 /// KIR3DS1 (11738374_at) / Fold change /veh KIR2DL2 /// KIR2DL4 /// KIR2DL5A /// KIR2DL5B /// KIR2DS1 /// KIR2DS2 /// KIR2DS3 /// KIR2DS4 /// KIR3DL3 /// KIR3DL3 /// KIR3DS1 (11738374_at) / RFU C1QL1 (11718748_at) / Fold change /veh C1QL1 (11718748_at) / RFU TMPRSS4 (11747572_a_at) / Fold change /veh TMPRSS4 (11747572_a_at) / RFU HAMP (11756126_x_at) / Fold change /veh HAMP (11756126_x_at) / RFU RNFT2 (11725882_a_at) / Fold change /veh RNFT2 (11725882_a_at) / RFU NR4A2 (11747474_a_at) / Fold change /veh NR4A2 (11747474_a_at) / RFU ABCC12 (11746883_a_at) / Fold change /veh ABCC12 (11746883_a_at) / RFU TMEM136 (11760407_x_at) / Fold change /veh TMEM136 (11760407_x_at) / RFU CLDN22 /// WWC2 (11732394_at) / Fold change /veh CLDN22 /// WWC2 (11732394_at) / RFU HLA-DPB1 (11760878_x_at) / Fold change /veh HLA-DPB1 (11760878_x_at) / RFU SPINT1 (11716480_a_at) / Fold change /veh SPINT1 (11716480_a_at) / RFU GAP43 (11754022_s_at) / Fold change /veh GAP43 (11754022_s_at) / RFU A4GNT (11735810_at) / Fold change /veh A4GNT (11735810_at) / RFU PRB3 (11715151_x_at) / Fold change /veh PRB3 (11715151_x_at) / RFU TUBB4B (11761932_at) / Fold change /veh TUBB4B (11761932_at) / RFU CAPN14 (11732068_a_at) / Fold change /veh CAPN14 (11732068_a_at) / RFU TMCC2 (11721928_a_at) / Fold change /veh TMCC2 (11721928_a_at) / RFU IRGQ (11745062_a_at) / Fold change /veh IRGQ (11745062_a_at) / RFU FAM174B (11720279_a_at) / Fold change /veh FAM174B (11720279_a_at) / RFU TMPRSS4 (11748680_a_at) / Fold change /veh TMPRSS4 (11748680_a_at) / RFU FAM212B (11763350_a_at) / Fold change /veh FAM212B (11763350_a_at) / RFU PLEKHG5 (11743358_a_at) / Fold change /veh PLEKHG5 (11743358_a_at) / RFU ZSCAN30 (11745921_a_at) / Fold change /veh ZSCAN30 (11745921_a_at) / RFU CMKLR1 (11741424_a_at) / Fold change /veh CMKLR1 (11741424_a_at) / RFU LOC101060620 /// MAPK8IP1 (11723275_at) / Fold change /veh LOC101060620 /// MAPK8IP1 (11723275_at) / RFU SPTSSB (11747773_x_at) / Fold change /veh SPTSSB (11747773_x_at) / RFU PRSS12 (11739890_at) / Fold change /veh PRSS12 (11739890_at) / RFU BIN1 (11741810_x_at) / Fold change /veh BIN1 (11741810_x_at) / RFU WNT11 (11732464_a_at) / Fold change /veh WNT11 (11732464_a_at) / RFU C10orf10 (11716521_a_at) / Fold change /veh C10orf10 (11716521_a_at) / RFU C5orf56 (11738089_at) / Fold change /veh C5orf56 (11738089_at) / RFU CYB561 (11721691_x_at) / Fold change /veh CYB561 (11721691_x_at) / RFU ANKRD19P (11752326_a_at) / Fold change /veh ANKRD19P (11752326_a_at) / RFU OR2T12 /// OR2T33 /// OR2T8 (11738714_s_at) / Fold change /veh OR2T12 /// OR2T33 /// OR2T8 (11738714_s_at) / RFU VCAN (11748164_a_at) / Fold change /veh VCAN (11748164_a_at) / RFU JSRP1 (11732532_at) / Fold change /veh JSRP1 (11732532_at) / RFU KRTAP10-11 (11738290_x_at) / Fold change /veh KRTAP10-11 (11738290_x_at) / RFU MYO3A (11730013_a_at) / Fold change /veh MYO3A (11730013_a_at) / RFU EBF3 (11725865_a_at) / Fold change /veh EBF3 (11725865_a_at) / RFU CAMK2N1 (11719241_x_at) / Fold change /veh CAMK2N1 (11719241_x_at) / RFU C5orf56 (11738088_a_at) / Fold change /veh C5orf56 (11738088_a_at) / RFU OLFML3 (11715873_a_at) / Fold change /veh OLFML3 (11715873_a_at) / RFU LOC100653217 /// NTM (11731650_a_at) / Fold change /veh LOC100653217 /// NTM (11731650_a_at) / RFU MAPK11 (11762145_a_at) / Fold change /veh MAPK11 (11762145_a_at) / RFU FIZ1 (11724087_x_at) / Fold change /veh FIZ1 (11724087_x_at) / RFU OASL (11726364_x_at) / Fold change /veh OASL (11726364_x_at) / RFU SOX15 (11748057_x_at) / Fold change /veh SOX15 (11748057_x_at) / RFU CD79A (11719716_a_at) / Fold change /veh CD79A (11719716_a_at) / RFU HIST1H1D (11736915_at) / Fold change /veh HIST1H1D (11736915_at) / RFU CASKIN2 (11723855_a_at) / Fold change /veh CASKIN2 (11723855_a_at) / RFU LOC730098 (11760151_x_at) / Fold change /veh LOC730098 (11760151_x_at) / RFU OR4N2 (11742367_at) / Fold change /veh OR4N2 (11742367_at) / RFU PRRT2 (11749266_a_at) / Fold change /veh PRRT2 (11749266_a_at) / RFU SNX32 (11753110_a_at) / Fold change /veh SNX32 (11753110_a_at) / RFU CDHR5 (11726645_a_at) / Fold change /veh CDHR5 (11726645_a_at) / RFU RCAN1 (11760418_a_at) / Fold change /veh RCAN1 (11760418_a_at) / RFU FAM167A (11723789_a_at) / Fold change /veh FAM167A (11723789_a_at) / RFU FAM26E (11764081_at) / Fold change /veh FAM26E (11764081_at) / RFU ISYNA1 (11749810_s_at) / Fold change /veh ISYNA1 (11749810_s_at) / RFU ACY1 (11761880_at) / Fold change /veh ACY1 (11761880_at) / RFU 11764098_at / Fold change /veh 11764098_at / RFU SAMD14 (11745864_x_at) / Fold change /veh SAMD14 (11745864_x_at) / RFU NPB (11741838_a_at) / Fold change /veh NPB (11741838_a_at) / RFU TMPRSS6 (11731388_a_at) / Fold change /veh TMPRSS6 (11731388_a_at) / RFU KRTAP10-2 (11738614_at) / Fold change /veh KRTAP10-2 (11738614_at) / RFU ARHGAP8 /// PRR5-ARHGAP8 (11727945_x_at) / Fold change /veh ARHGAP8 /// PRR5-ARHGAP8 (11727945_x_at) / RFU KRTAP5-7 /// NADSYN1 (11734609_at) / Fold change /veh KRTAP5-7 /// NADSYN1 (11734609_at) / RFU RASL12 (11751679_a_at) / Fold change /veh RASL12 (11751679_a_at) / RFU CDKN2B (11736163_a_at) / Fold change /veh CDKN2B (11736163_a_at) / RFU PRF1 (11729649_at) / Fold change /veh PRF1 (11729649_at) / RFU, ZNF638 /// ZNF638-IT1 / Fold change vs veh, ZNF638 /// ZNF638-IT1 / RFU, PANK3 / Fold change vs veh, PANK3 / RFU, SH3YL1 / Fold change vs veh, SH3YL1 / RFU, ZEB2 / Fold change vs veh, ZEB2 / RFU, NRIP1 / Fold change vs veh, NRIP1 / RFU, PTTG1IP / Fold change vs veh, PTTG1IP / RFU, CAPN2 / Fold change vs veh, CAPN2 / RFU, MED14 / Fold change vs veh, MED14 / RFU, SNORA58 / Fold change vs veh, SNORA58 / RFU, C1orf63 / Fold change vs veh, C1orf63 / RFU, LRRFIP1 / Fold change vs veh, LRRFIP1 / RFU, NDUFAF7 / Fold change vs veh, NDUFAF7 / RFU, SLC12A2 / Fold change vs veh, SLC12A2 / RFU, IBTK / Fold change vs veh, IBTK / RFU, ESF1 / Fold change vs veh, ESF1 / Fold change vs veh, TMEM50B / RFU, TAOK1 / Fold change vs veh, TAOK1 / RFU, ACBD3 / Fold change vs veh, ACBD3 / RFU, TMA16 / Fold change vs veh, TMA16 / RFU, RWDD3 / Fold change vs veh, RWDD3 / RFU, BCAT1 / Fold change vs veh, BCAT1 / RFU, EDEM3 / Fold change vs veh, EDEM3 / RFU, TMEM33 / Fold change vs veh, TMEM33 / RFU, WDR75 / Fold change vs veh, WDR75 / RFU, AHCTF1 / Fold change vs veh, AHCTF1 / RFU, TFRC / Fold change vs veh, TFRC / RFU, ZDHHC17 / Fold change vs veh, ZDHHC17 / RFU, NOM1 / Fold change vs veh, NOM1 / RFU, ARL8B / Fold change vs veh, ARL8B / RFU, ZBTB11 / Fold change vs veh, ZBTB11 / RFU, TAMM41 / Fold change vs veh, TAMM41 / RFU, KIAA1704 /// LOC100996395 / Fold change vs veh, KIAA1704 /// LOC100996395 / RFU, ING1 / Fold change vs veh, ING1 / RFU, TRMT61B / Fold change vs veh, TRMT61B / RFU, FUBP3 / Fold change vs veh, FUBP3 / RFU, TP53 / Fold change vs veh, TP53 / RFU, TNKS2 / Fold change vs veh, TNKS2 / RFU, ZFP14 / Fold change vs veh, ZFP14 / RFU, ACTR2 / Fold change vs veh, ACTR2 / RFU, PPP3R1 / Fold change vs veh, PPP3R1 / RFU, PIK3R1 / Fold change vs veh, PIK3R1 / RFU, HNRNPA1 / Fold change vs veh, HNRNPA1 / RFU, RNF170 / Fold change vs veh, RNF170 / RFU, ZNF28 / Fold change vs veh, ZNF28 / RFU, RNGTT / Fold change vs veh, RNGTT / RFU, OGT / Fold change vs veh, OGT / RFU, BRD1 / Fold change vs veh, BRD1 / RFU, MARS / Fold change vs veh, MARS / RFU, ZNF655 / Fold change vs veh, ZNF655 / RFU, FAHD1 / Fold change vs veh, FAHD1 / RFU, BDP1 / Fold change vs veh, BDP1 / RFU, LRRCC1 / Fold change vs veh, LRRCC1 / RFU, ARID1A / Fold change vs veh, ARID1A / RFU, ZNF146 / Fold change vs veh, ZNF146 / RFU, ZNF330 / Fold change vs veh, ZNF330 / RFU, GPN3 / Fold change vs veh, GPN3 / RFU, C9orf123 / Fold change vs veh, C9orf123 / RFU, N4BP2L2 / Fold change vs veh, N4BP2L2 / RFU, ARFIP1 / Fold change vs veh, ARFIP1 / RFU, FAM179B / Fold change vs veh, FAM179B / RFU, BCL10 / Fold change vs veh, BCL10 / RFU, UHRF1BP1L / Fold change vs veh, UHRF1BP1L / RFU, BET1 / Fold change vs veh, BET1 / RFU, CNOT2 / Fold change vs veh, CNOT2 / RFU, ZNF268 / Fold change vs veh, ZNF268 / Fold change vs veh, ZNF507 / RFU, DGCR2 / Fold change vs veh, DGCR2 / RFU, WDSUB1 / Fold change vs veh, WDSUB1 / Fold change vs veh, HSP90B1 /// MIR3652 / RFU, ADSS / Fold change vs veh, ADSS / RFU, GK / Fold change vs veh, GK / RFU, ZNF148 / Fold change vs veh, ZNF148 / RFU, TAF9 / Fold change vs veh, TAF9 / RFU, SLC1A5 / Fold change vs veh, SLC1A5 / RFU, SLMO2 / Fold change vs veh, SLMO2 / RFU, ABCC4 / Fold change vs veh, ABCC4 / RFU, LOC101060439 /// RAP1B / Fold change vs veh, LOC101060439 /// RAP1B / RFU, RFX7 / Fold change vs veh, RFX7 / RFU, GTPBP10 / Fold change vs veh, GTPBP10 / RFU, CNEP1R1 / Fold change vs veh, CNEP1R1 / RFU, BIVM-ERCC5 /// ERCC5 / Fold change vs veh, BIVM-ERCC5 /// ERCC5 / RFU, ILF3 / Fold change vs veh, ILF3 / RFU 11762660_at / Fold change /veh 11762660_at / RFU VCAN (11757783_s_at) / Fold change /veh VCAN (11757783_s_at) / RFU DDX43 (11728927_at) / Fold change /veh DDX43 (11728927_at) / RFU KRT8 (11758188_x_at) / Fold change /veh KRT8 (11758188_x_at) / RFU NKD1 (11759106_at) / Fold change /veh NKD1 (11759106_at) / RFU SRD5A1 (11742802_a_at) / Fold change /veh SRD5A1 (11742802_a_at) / RFU TPSAB1 /// TPSB2 (11721975_s_at) / Fold change /veh TPSAB1 /// TPSB2 (11721975_s_at) / RFU GSTM3 (11746129_a_at) / Fold change /veh GSTM3 (11746129_a_at) / RFU IL23R (11737362_x_at) / Fold change /veh IL23R (11737362_x_at) / RFU TMEM51 (11727254_a_at) / Fold change /veh TMEM51 (11727254_a_at) / RFU PIWIL2 (11732686_x_at) / Fold change /veh PIWIL2 (11732686_x_at) / RFU ORM1 (11744905_x_at) / Fold change /veh ORM1 (11744905_x_at) / RFU CCDC152 (11743942_at) / Fold change /veh CCDC152 (11743942_at) / RFU ECM1 (11717891_a_at) / Fold change /veh ECM1 (11717891_a_at) / RFU IL23R (11748794_a_at) / Fold change /veh IL23R (11748794_a_at) / RFU TNFAIP8L3 (11732012_x_at) / Fold change /veh TNFAIP8L3 (11732012_x_at) / RFU MBOAT4 (11741988_at) / Fold change /veh MBOAT4 (11741988_at) / RFU 11764193_at / Fold change /veh 11764193_at / RFU TMEM53 (11763286_at) / Fold change /veh TMEM53 (11763286_at) / RFU MAGEB2 (11727129_at) / Fold change /veh MAGEB2 (11727129_at) / RFU TMEM200A (11744735_a_at) / Fold change /veh TMEM200A (11744735_a_at) / RFU CCDC152 (11751479_a_at) / Fold change /veh CCDC152 (11751479_a_at) / RFU FAM211A (11726209_a_at) / Fold change /veh FAM211A (11726209_a_at) / RFU RGS16 (11746705_a_at) / Fold change /veh RGS16 (11746705_a_at) / RFU VCAN (11755009_s_at) / Fold change /veh VCAN (11755009_s_at) / RFU RHOB (11743442_s_at) / Fold change /veh RHOB (11743442_s_at) / RFU RGS16 (11720943_a_at) / Fold change /veh RGS16 (11720943_a_at) / RFU RGS16 (11720944_at) / Fold change /veh RGS16 (11720944_at) / RFU, VPS4B / Fold change vs veh, VPS4B / RFU, CREB1 / Fold change vs veh, CREB1 / RFU, DNAJC13 / Fold change vs veh, DNAJC13 / RFU, GNAQ / Fold change vs veh, GNAQ / RFU, CDK5R1 / Fold change vs veh, CDK5R1 / RFU, ZRANB3 / Fold change vs veh, ZRANB3 / RFU, CUL4A / Fold change vs veh, CUL4A / RFU, CCNY / Fold change vs veh, CCNY / RFU, UFL1 / Fold change vs veh, UFL1 / RFU, COG3 / Fold change vs veh, COG3 / RFU, DIAPH2 / Fold change vs veh, DIAPH2 / RFU, SKA2 / Fold change vs veh, SKA2 / RFU, AFF3 / Fold change vs veh, AFF3 / RFU, LMF1 / Fold change vs veh, LMF1 / RFU, IPO11 / Fold change vs veh, IPO11 / RFU, DFFB / Fold change vs veh, DFFB / RFU, FOXP1 / Fold change vs veh, FOXP1 / RFU, CARD8 / Fold change vs veh, CARD8 / RFU, STRN3 / Fold change vs veh, STRN3 / RFU, ADK / Fold change vs veh, ADK / RFU, RASSF2 / Fold change vs veh, RASSF2 / RFU, WIPF1 / Fold change vs veh, WIPF1 / RFU, LARP1B / Fold change vs veh, LARP1B / RFU, RASA1 / Fold change vs veh, RASA1 / RFU, RB1 / Fold change vs veh, RB1 / RFU, PPFIA1 / Fold change vs veh, PPFIA1 / RFU, MAT2A / Fold change vs veh, MAT2A / RFU, CCT5 / Fold change vs veh, CCT5 / RFU, WDR92 / Fold change vs veh, WDR92 / RFU, CUX1 / Fold change vs veh, CUX1 / RFU, TTC7A / Fold change vs veh, TTC7A / RFU, TMEM135 / Fold change vs veh, TMEM135 / RFU, DEPTOR / Fold change vs veh, DEPTOR / RFU, CPM / Fold change vs veh, CPM / RFU, DNAJB6 / Fold change vs veh, DNAJB6 / RFU, CACNA2D3 / Fold change vs veh, CACNA2D3 / RFU, DTX4 / Fold change vs veh, DTX4 / RFU, TFCP2 / Fold change vs veh, TFCP2 / RFU, GMCL1 /// GMCL1P1 / Fold change vs veh, GMCL1 /// GMCL1P1 / RFU, AEBP2 / Fold change vs veh, AEBP2 / RFU, SNHG1 /// SNORD22 /// SNORD25 /// SNORD26 /// SNORD27 /// SNORD28 /// SNORD29 /// SNORD31 / Fold change vs veh, SNHG1 /// SNORD22 /// SNORD25 /// SNORD26 /// SNORD27 /// SNORD28 /// SNORD29 /// SNORD31 / Fold change (Aza/veh), C12orf56 (ProbeSet 11735607_a_at) / Fold change (ACY-1035/veh), C12orf56 (ProbeSet 11735607_a_at) / Fold change (Aza/veh), FGFR1OP (ProbeSet 11751329_s_at) / Fold change (ACY-1035/veh), FGFR1OP (ProbeSet 11751329_s_at) / Fold change (Aza/veh), VPS36 (ProbeSet 11739960_a_at) / Fold change (ACY-1035/veh), VPS36 (ProbeSet 11739960_a_at) / RFU SYPL1 (11715823_x_at) / Fold change /veh SYPL1 (11715823_x_at) / RFU IGFBP7 (11715501_s_at) / Fold change /veh IGFBP7 (11715501_s_at) / RFU REEP3 (11722064_at) / Fold change /veh REEP3 (11722064_at) / RFU IGLL1 (11728026_x_at) / Fold change /veh IGLL1 (11728026_x_at): dose or concentration left out as unconfirmed
# Settings: ProbeSet 11749477_a_at; LIST B
compound,measurement,value
Nc1ccc(-c2cccs2)cc1NC(=O)c1ccc2c(c1)cc(C1CC1)n2CCN1CCOCC1 [ACY-1035],"Fold change vs veh, EDEM3",0.94
